Laboratory results taken from ChEMBL document CHEMBL1121780, “Synthesis and antiarrhythmic activity of new benzofuran derivatives” (J Med Chem, 1981).
Several values for one entry are separate records, joined by “and”; a condition that tells them apart may be missing. Equal entries are not always repeated. Activity calls are given as the source filed them. No cut-off for these calls is given here.

Columns and labels:
Canis familiaris [1] = species on record: Canis familiaris; test: Duration for the sinus rhythm recovery was measured; type: functional, Canis lupus familiaris
Canis familiaris [2] = test: Activity against ouabain-induced ventricular arrhythmia was measured as percent of sinus rhythm recovery at dose of 2 mg/kg iv; type: functional, Canis lupus familiaris, Cardiac ventricle
[3] = Toxicity was estimated in mouse as LD50 by intravenous administration; LD50=1000 (40%); type: organism-based; settings: in vivo
Canis familiaris [4] = species on record: Canis familiaris; test: Duration for the antiarrhythmic activity was measured; type: functional, Canis lupus familiaris, Heart
Canis familiaris [5] = test: Activity against harris coronary ligation induced ventricular arrhythmia was measured as percent of initial sinus complexes after dose 2 mg/kg iv; type: functional, Canis lupus familiaris, Cardiac ventricle
Canis familiaris [6] = test: Activity against harris coronary ligation induced ventricular arrhythmia was measured as percent of final sinus complexes after dose 2 mg/kg iv; type: functional, Canis lupus familiaris, Cardiac ventricle
[7] = Toxicity estimated in mouse as LD50 by intravenous administration; type: organism-based; settings: in vivo
Canis familiaris [8] = test: Activity against ouabain-induced ventricular arrhythmia was measured as percent of sinus rhythm recovery at dose of 6 mg/kg iv; type: functional, Canis lupus familiaris, Cardiac ventricle
Canis familiaris [9] = test: Activity against harris coronary ligation induced ventricular arrhythmia was measured as percent of initial sinus complexes after dose mg/kg, iv=25; type: functional, Canis lupus familiaris, Cardiac ventricle
Canis familiaris [10] = test: Activity against harris coronary ligation induced ventricular arrhythmia was measured as percent of initial sinus complexes after dose 10 mg/kg iv; type: functional, Canis lupus familiaris, Cardiac ventricle
Canis familiaris [11] = test: Activity against ouabain-induced ventricular arrhythmia was measured as percent of sinus rhythm recovery at dose of 10 mg/kg iv; type: functional, Canis lupus familiaris, Cardiac ventricle
Canis familiaris [12] = test: Activity against harris coronary ligation induced ventricular arrhythmia was measured as percent of initial sinus complexes after dose mg/kg, iv=12.5; type: functional, Canis lupus familiaris, Cardiac ventricle
Canis familiaris [13] = test: Activity against harris coronary ligation induced ventricular arrhythmia was measured as percent of final sinus complexes after dose mg/kg, iv; type: functional, Canis lupus familiaris, Cardiac ventricle
Canis familiaris [14] = test: Activity against harris coronary ligation induced ventricular arrhythmia was measured as percent of final sinus complexes after dose 10 mg/kg iv; type: functional, Canis lupus familiaris, Cardiac ventricle
Canis familiaris [15] = test: Activity against harris coronary ligation induced ventricular arrhythmia was measured as percent of initial sinus complexes after dose mg/kg, iv=2; type: functional, Canis lupus familiaris, Cardiac ventricle
Canis familiaris [16] = test: Activity against harris coronary ligation induced ventricular arrhythmia was measured as percent of final sinus complexes after dose mg/kg, iv=2; type: functional, Canis lupus familiaris, Cardiac ventricle
Canis familiaris [17] = test: Activity against harris coronary ligation induced ventricular arrhythmia was measured as percent of initial sinus complexes after dose 12.5 mg/kg, po; type: functional, Canis lupus familiaris, Cardiac ventricle
Canis familiaris [18] = test: Activity against harris coronary ligation induced ventricular arrhythmia was measured as percent of final sinus complexes after dose 2 mg/kg, iv; type: functional, Canis lupus familiaris, Cardiac ventricle
Canis familiaris [19] = test: Activity against harris coronary ligation induced ventricular arrhythmia was measured as percent of final sinus complexes after dose 12.5 mg/kg, po; type: functional, Canis lupus familiaris, Cardiac ventricle
Canis familiaris [20] = species on record: Canis familiaris; test: Activity against ouabain-induced ventricular arrhythmia was measured as percent of sinus rhythm recovery; Estimated as too toxic to be tested; type: functional, organism-based; settings: Canis lupus familiaris; Cardiac ventricle
Canis familiaris [21] = test: Activity against harris coronary ligation induced ventricular arrhythmia was measured as percent of initial sinus complexes after dose 2 mg/kg, iv; Inactive; type: functional, organism-based; parameters: dose 2 mg/kg; settings: Canis lupus familiaris; Cardiac ventricle; at 2 mg/kg
Canis familiaris [22] = test: Activity against ouabain-induced ventricular arrhythmia was measured as percent of sinus rhythm recovery at dose of 1 mg/kg iv; type: functional, Canis lupus familiaris, Cardiac ventricle
Canis familiaris [23] = test: Activity against ouabain-induced ventricular arrhythmia was measured as percent of sinus rhythm recovery at dose of 4 mg/kg iv; type: functional, Canis lupus familiaris, Cardiac ventricle
Canis familiaris [24] = test: Activity against ouabain-induced ventricular arrhythmia was measured as percent of sinus rhythm recovery at dose of 8 mg/kg iv; type: functional, Canis lupus familiaris, Cardiac ventricle
Canis familiaris [25] = test: Activity against harris coronary ligation induced ventricular arrhythmia was measured as percent of initial sinus complexes after dose 5 mg/kg, iv; type: functional, Canis lupus familiaris, Cardiac ventricle
Canis familiaris [26] = test: Activity against harris coronary ligation induced ventricular arrhythmia was measured as percent of final sinus complexes after dose 5 mg/kg, iv; type: functional, Canis lupus familiaris, Cardiac ventricle

Structure (SMILES)	Duration (Canis familiaris [1])	SRR (Canis familiaris [2])	Duration (Canis familiaris [4])	LD50 [7]	SRR (Canis familiaris [23])	also measured
CNC(=O)Nc1c(OCCN2CCC2)c(OC)c2occc2c1OC	10 min	100%	–	–	–	LD50 [3]: 1000 mg/kg
CCNC(=O)Nc1c(OCCN2CCCCC2)c(OC)c2occc2c1OC	120 min	100%	<30 min	28 mg/kg	–	ISC (Canis familiaris [5]): 25%; FSC (Canis familiaris [6]): 90%
COc1c(NC(C)=O)c(OCCNC(C)C)c(OC)c2occc12	<30 min	–	–	88 mg/kg	–	SRR (Canis familiaris [8]): 33%
C=C[C@H]1CN2CC[C@H]1C[C@@H]2[C@@H](O)c1ccnc2ccc(OC)cc12 [QUINIDINE]	60 min	–	>90 min and 120 min and 240 min	89 mg/kg	–	ISC (Canis familiaris [9]): 9%; ISC (Canis familiaris [10]): 5%; SRR (Canis familiaris [11]): 50%; ISC (Canis familiaris [12]): 9%; FSC (Canis familiaris [13]): 25% and 56%; FSC (Canis familiaris [14]): 67%
CCCN(CCC)CCOc1c(NC(=O)NC)c(OC)c2ccoc2c1OC	45 min	100%	5 min	52 mg/kg	–	ISC (Canis familiaris [15]): 30%; FSC (Canis familiaris [16]): 37%
CNC(=O)Nc1c(OCCN2CCCCCC2)c(OC)c2occc2c1OC	95 min	100%	–	31 mg/kg	–	ISC (Canis familiaris [5]): 3%; ISC (Canis familiaris [17]): 5%; FSC (Canis familiaris [18]): 78%; FSC (Canis familiaris [19]): 90%
CCOc1c(NC(=O)NC)c(OCCN2CCCCC2)c(OC)c2occc12	–	–	–	10 mg/kg	–	SRR (Canis familiaris [20]): inactive
CNC(=O)Nc1c(OCCCN2CCCCC2)c(OC)c2occc2c1OC	>100 min	100%	–	42.5 mg/kg	–	ISC (Canis familiaris [21]): inactive
COc1c(NC(C)=O)c(OCCN2CCCCCCC2)c(OC)c2occc12	>50 min	–	<30 min	21 mg/kg	–	ISC (Canis familiaris [5]): 5%; SRR (Canis familiaris [22]): 100%; FSC (Canis familiaris [6]): 17%
COc1c(NC=O)c(OCCN2CCCCC2)c(OC)c2occc12	10 min	–	–	46 mg/kg	100%	–
COc1c(NC(C)=O)c(OCCN2CCCC2)c(OC)c2occc12	<30 min	–	–	80 mg/kg	33%	–
CNC(=O)Nc1c(OC)c2c(c(OC)c1OCCN1CCCCC1)OCC2	<30 min	–	–	180 mg/kg	–	SRR (Canis familiaris [24]): 100%
COc1c(NC(C)=O)c(OCCNC2CCCCC2)c(OC)c2occc12	<30 min	–	–	11.5 mg/kg	–	SRR (Canis familiaris [22]): 50%
COc1c(NC(=O)N(C)C)c(OCCN2CCCCC2)c(OC)c2occc12	60 min	–	40 min	25 mg/kg	50%	ISC (Canis familiaris [5]): 22%; FSC (Canis familiaris [6]): 52%
CNC(=O)Nc1c(OCCCN2CCCC2)c(OC)c2occc2c1OC	>60 min	–	20 min	32 mg/kg	100%	ISC (Canis familiaris [25]): 0%; FSC (Canis familiaris [26]): 9%
CNC(=O)Nc1c(OCCCCN2CCCCC2)c(OC)c2occc2c1OC	<30 min	–	–	68 mg/kg	100%	–
